Counter-ions that a name gives are not always drawn.

A short description of series [1]: apparent water solubility test. Format: physicochemical. The settings on record: for Solubility: apparent water solubility, 25° C.±2° C., clarity observed by naked eye, 5 mg sample, max 100 mL water; for apparent water solubility: as shown in Comparative Example 1. The method, then: Accurately weighed 5 mg samples in a 200 mL flask which was in a water bath with temperature 25° C.±2° C., added water in a geometric fashion the flask, stirred (about 200 r/min), and observed by naked eyes to see if it was clear. Water was added every 3 mins, maximum water amount 100 mL.

Series [2] is described as follows: storage phase stability of crystalline form at 25° C./60% relative humidity. The format is physicochemical. The settings on record: 6 months of storage at 25° C./60% relative humidity.

In the case of `Cc1cccc(-c2nn3c(c2-c2ccnc4ccc(C(N)=O)cc24)CCC3)n1` [LY2157299 Monohydrate, 2-(6-methyl-pyridin-2-yl)-3-(6-amido-quinolin-4-yl)-5,6-dihydro-4H-pyrrolo[1,2-b]pyrazole, reference compound], in series [1], the Solubility is less than 50 µg/mL and the apparent water solubility entry was “less than 50 ug/mL”.
As for `Cc1cccc(-c2nn3c(c2-c2ccnc4ccc(C(N)=O)cc24)CCC3)n1` [LY2157299 succinate cocrystal form, 2-(6-methyl-pyridin-2-yl)-3-(6-amido-quinolin-4-yl)-5,6-dihydro-4H-pyrrolo[1,2-b]pyrazole], the “crystalline form after storage (phase stability)” value in series [2] was “remained its original crystalline form”. For the same molecule, in series [1], the Solubility was 130 µg/mL and the apparent water solubility result is listed as “about 130 ug/mL”.
On to `Cc1cccc(-c2nn3c(c2-c2ccnc4ccc(C(N)=O)cc24)CCC3)n1` [LY2157299 fumarate cocrystal form, 2-(6-methyl-pyridin-2-yl)-3-(6-amido-quinolin-4-yl)-5,6-dihydro-4H-pyrrolo[1,2-b]pyrazole], for which, in series [2], the “crystalline form after storage (phase stability)” value is “remained its original crystalline form”. Further, in series [1], the Solubility was 330 µg/mL and the apparent water solubility result is given as “about 330 ug/mL”.

As a reminder, the Solubility is the concentration that dissolves in the medium under given conditions.

Values taken from US10995083B2, “Cocrystal of 2-(6-methyl-pyridine-2-yl)-3-yl-[6-amide-quinoline-4-yl]-5,6-dihydro-4H-pyrrole[1,2-b]pyrazole, preparation method therefor, and pharmaceutical composition” (Hangzhou SoliPharma Co., Ltd., priority 2017, dated 2021).
